Source: patent US8207143B2, “Methods of treating cancer and other conditions or disease states using LFMAU and LDT” (Yale University, priority 2005, dated 2012)

Legend:
colon 38 mouse tumor = assay: Experiment 7: LDT and LFMAU alone and with 5-Fluorouracil/leucovorin on colon 38 in immuno-competent mice; type: in vivo; details: LDT 100 mg/kg
Experimental: This tumor is passed from a solid tumor growing in mice. Several grams (assuming a gram per ml) are pressed through a sterile screen and suspended in a tissue culture media without phenol red or fetal calf serum (a balanced salt solution) at 2 ml/gram of tumor. Then 0.1 ml of this tumor suspension is implanted into the flank of the mouse. Ten days to two weeks after implantation (when the tumors could be measured with a caliper), unless otherwise indicated, the drug therapy was initiated.
In general, drugs are delivered at a rate of 0.1 ml per 10 grams of body weight. Every day the mice are weighed to deter the amount to be injected and as a index of toxicity.
The Tumor Volume is calculated from the measurements by the formula: length (mm)×width (mm)×width (mm)×II/6 (as a % of Day 1).
This experiment was designed to determine the effect of LDT and LFMAU alone and in combination with 5-Fluorouracil with leucovorin rescue on the growth of mouse tumor (colon 38) in immuno-competent mice. The drugs were administered to the mice according to the following schedule:
5FU/LV—150 mg/kg each i.p. once on day one
LDT—100 mg/kg p.o. b.i.d. for 5 days
LFMAU—50 mg/kg p.o. bid for 5 days
Combination groups received both treatments as per above schedules.

colon 38 = assay: Experiment 8: LDT and LFMAU enhancement of oxaliplatin on colon 38 growth in C57BL6 female mice; type: in vivo, mouse
Experimental: This tumor is passed from a solid tumor growing in mice. Several grams (assuming a gram per ml) are pressed through a sterile screen and suspended in a tissue culture media without phenol red or fetal calf serum (a balanced salt solution) at 2 ml/gram of tumor. Then 0.1 ml of this tumor suspension is implanted into the flank of the mouse. Ten days to two weeks after implantation (when the tumors could be measured with a caliper), unless otherwise indicated, the drug therapy was initiated. In general, drugs are delivered at a rate of 0.1 ml per 10 grams of body weight. Every day the mice are weighed to deter the amount to be injected and as a index of toxicity. The Tumor Volume is calculated from the measurements by the formula: length (mm)×width (mm)×width (mm)×II/6 (as a % of Day 1). Experiment 8 tested the effects of LDT (L-dT) and LFMAU (15 mg/kg of each, same schedule as above) on the enhancement of anti-cancer drug effect (oxaliplatin 10 mg/kg i.p., once on day 1) on colon 38 growth in C57BL6 female mice.

HepG2 = assay: Experiment 9: LDT enhancement of oxaliplatin on HepG2 in NCR Nu/Nu male mice; type: in vivo, human
Experimental: This is a human hepatocarcinoma that is grown in tissue culture as a monolayer in MEM with 10% FBS. Several flasks of cells are grown, then harvested with pancreatin and resuspended in a balanced salt solution at 10^8 per ml the 0.1 ml of this suspension is implanted into the flank of a NCR nude mouse (T cell deficient to grow human tissues). Then approximately 10 days later, when the tumor was measurable, the drug treatment started. In general, drugs are delivered at a rate of 0.1 ml per 10 grams of body weight. Every day the mice are weighed to deter the amount to be injected and as a index of toxicity. The Tumor Volume is calculated from the measurements by the formula: length (mm)×width (mm)×width (mm)×II/6 (as a % of Day 1). Experiment 9 tested the effects of LDT (15 mg/kg, same schedule as above) on the enhancement of anti-cancer drug effect (oxaliplatin 10 mg/kg i.p., once on day 1) on HepG2in immunodeficient NCR Nu/Nu male mice.

B16 melanoma = assay: Experiment 6: B16 melanoma injected subcutaneously into C57 BL6 mice; type: in vivo, mouse; details: B16 melanoma s.c. in C57 BL6 mice; LFMAU 50 mg/kg B.I.D., 5 days pretreatment then ten days; Controls 831±474.5
Experimental: These experiments includes B16 melanoma which was injected subcutaneously into C57 BL6 mice which were pretreated for 5 days with LFMAU (B.I.D.) and then subsequently for ten days with LFMAU (BID.) at 50 mg/kg. with no other anti-cancer compound. This experiment yielded tumor size S.D. for the Controls of 831±474.5 and for the LFMAU treated mice of 160±150.3.

[1] = immunocompetent mice, LFMAU 50 mg/kg p.o. b.i.d. for 5 days

| Structure (SMILES) | duration of the effect after therapy (FIG. 7) (colon 38 mouse tumor; [1]) | effect on growth of colon 38 mouse tumor, alone (FIG. 7) (colon 38 mouse tumor; [1]) | effect on the anti-cancer activity of 5-FU/LV (FIG. 7) (colon 38 mouse tumor; with 5FU/LV 150 mg/kg each i.p. once on day one, LFMAU 50 mg/kg p.o. b.i.d. 5 days) | enhancement of anti-tumor effect of Oxaliplatin on colon 38 (FIG. 8) (colon 38; 15 mg/kg of each nucleoside, oxaliplatin 10 mg/kg i.p. once on day 1) | duration of the effect after treatment (FIG. 8) (colon 38; 15 mg/kg with oxaliplatin 10 mg/kg i.p.) | effect on HepG2 tumor, alone or in combination (FIG. 9) (HepG2; LDT 15 mg/kg) | duration of the effect after treatment (FIG. 9) (HepG2; LDT 15 mg/kg with oxaliplatin) | enhancement of anti-tumor effect of Oxaliplatin on HepG2 (FIG. 9) (HepG2; LDT 15 mg/kg, oxaliplatin 10 mg/kg i.p. once on day 1) | tumor size S.D. (B16 melanoma) |
| --- | --- | --- | --- | --- | --- | --- | --- | --- | --- |
| Cc1cn([C@@H]2C[C@@H](O)[C@H](CO)O2)c(=O)[nH]c1=O [LDT, β-L-2′-deoxyribofuranosylthymidine] | lasted well past the 5 day therapy | slows down the growth | significant (additive or synergistic) | clearly enhanced the anti-tumor effect of Oxaliplatin | lasts well after the nucleoside treatment is stopped | effective alone or in combination with oxaliplatin | lasts after the nucleoside treatment is stopped | clearly enhanced the anti-tumor effect of Oxaliplatin |  |
| Cc1cn([C@H]2O[C@@H](CO)[C@H](O)[C@H]2F)c(=O)[nH]c1=O [LFMAU, 2′-fluoro-5-methyl-β-L-arabinofuranosyluridine] |  |  |  |  |  |  |  |  | 160±150.3 |
